Measured values: patent publication US5821240A, “Pyrimido[5,4]-dipyrimidines, pharmaceuticals containing them, their use and processes for the preparation thereof” (Dr. Karl Thomae GmbH, priority 1996, dated 1998)

Columns and labels:
[1] = test system: F/L-HERc cells expressing human EGF-R; assay: Inhibition of EGF-dependent proliferation of F/L-HERc cells; type: cell-based, murine cell line; human EGF-R; settings: EGF 20 ng/ml, 37° C., 48 hours
Excerpt: (§1) In this case, an interleukin-3 (IL-3)-dependent cell line of murine origin was used and was genetically modified in such a way that it expresses functional human EGF-R. Proliferation of these cells, which are called F/L-HERc, can therefore be stimulated either by murine IL-3 or by EGF (see von Ruden, T. et al. in EMBO J. 7, 2749-2756 (1988) and Pierce, J. H. et al. in Science 239, […] (1988)).
(§2) The starting material for the F/L-HERc cells was the cell line FDC-P1 whose preparation has been described by Dexter, T. M. et al. in J. Exp. Med. 152, 1036-1047 (1980). However, it is also possible as an alternative to use other growth factor-dependent cells (see, for example, Pierce, J. H. et al. in Science 239, 628-631 (1988), Shibuya, H. et al. in Cell 70, 57-67 (1992) and Alexander, W. S. et al. in EMBO J. 10, 3683-3691 (1991)). Recombinant retroviruses as described in von Ruden, T. et al., EMBO J. 7, 2749-2756 (1988) Were used for expression of the human EGF-R cDNA (see Ullrich, A. et al. in Nature 309, 418-425 (1984)), with the difference that the retroviral vector LXSN (see Miller, A. D. et al. in BioTechniques 7, 980-990 (1989)) was employed for expression of the EGF-R cDNA, and the line GP+E86 (see Markowitz, D. et al. in J. Virol. 62, 1120-1124 (1988)) was used as packaging cell.
(§3) F/L-HERc cells were cultivated in RPMI/1640 medium (BioWhittaker), supplemented with 10% fetal calf serum (FCS, Boehringer Mannheim), 2 mM glutamine (BioWhittaker), standard antibiotics and 20 ng/ml human EGF (Promega), at 37° C. and 5% CO2. To investigate the inhibitor activity of the compounds according to the invention, 1.5×10^4 cells were cultivated in the above medium (200 μl) per well in triplicates in 96-well plates, stimulating proliferation of the cells either with EGF (20 ng/ml) or with murine IL-3. The source used for IL-3 was culture supernatants from the cell line X63/0 mIL-3 (see Karasuyama, H. et al. in Eur. J. Immunol. 18, 97-104 (1988)). The compounds according to the invention were dissolved in 100% dimethyl sulphoxide (DMSO) and added in various dilutions to the cultures, with the maximum DMSO concentration being 1%. The cultures were incubated at 37° C. for 48 hours.
(§4) To determine the inhibitory activity of the compounds according to the invention, the relative cell count was measured in O.D. units using the Cell Titre 96™ AQueous Non-Radioactive Cell Proliferation Assay (Promega). The relative cell count was calculated as a percent of the control (F/L-HERc cells without inhibitor), and the concentration of active substance which inhibits the proliferation of the cells by 50% (IC50) was inferred.

F/L-HERc cells = assay: Inhibition of IL-3-dependent proliferation of F/L-HERc cells; type: cell-based; settings: Mus musculus, murine IL-3, 37° C., 48 hours
Excerpt: as §1, §2, §3, §4

[2] = test system: human tumour cell line KB; assay: Inhibition of EGF/TGF-alpha-stimulated KB cell proliferation ([3H]-thymidine incorporation); type: cell-based; settings: TGF-alpha 10 ng/ml or EGF 20 ng/ml, serum-free, 60 hours then [3H]-thymidine 16-18 h
Experimental: KB cells (purchased from ATCC) were passaged in DMEM (BioWhittaker) in the presence of 10% FCS (Boehringer Mannheim), 50 μM beta-mercaptoethanol and standard antibiotics. The EGF-induced DNA synthesis was determined by measuring the incorporation of radioactively labelled thymidine as indicator of EGF/TGF-alpha-stimulated cell proliferation. To do this, the cells were washed twice and 1500 cells per well were plated out in a 96-well plate in 200 μl of IMDM (BioWhittaker) without serum in the presence of 50 μM beta-mercaptoethanol, standard antibiotics, TGF-alpha [10 ng/ml] or EGF [20 ng/ml] and of various concentrations of the substances according to the invention (triplicates, maximum DMSO concentration 1%, see proliferation t t with F/L-HERc cells). After 60 hours, [^3 H]-thymidine (0.1 μCi in 10 μl) was added for about 16-18 h.

Row | SMILES | IC50 [1] [nM] | IC50 (F/L-HERc cells) [nM] | IC50 [2] [nM]
1 | Nc1c(Cl)cc(Nc2ncnc3cnc(N[C@H]4CC[C@H](C(=O)N5CCOCC5)CC4)nc23)cc1Cl [1(17), 4-[(4-Amino-3,5-dichlorophenyl)amino]-6-[trans-4-(morpholinocarbonyl)cyclohexylamino]pyrimido[5,4-d]pyrimidine] | 1 | > 1000 | 100 to 1000
2 | Nc1c(Cl)cc(Nc2ncnc3cnc(N[C@H]4CC[C@H](C(=O)N5CCCC5)CC4)nc23)cc1Cl [1(18), 4-[(4-Amino-3,5-dichlorophenyl)amino]-6-[trans-4-(pyrrolidinocarbonyl)cyclohexylamino]pyrimido[5,4-d]pyrimidine] | 3 | > 1000 | 100 to 1000
3 | Fc1ccc(Nc2ncnc3cnc(N4CCC(C5CCNCC5)CC4)nc23)cc1Cl [1(19), 4-[(3-Chloro-4-fluorophenyl)amino]-6-[4-(4-piperidinyl)-1-piperidinyl]pyrimido[5,4-d]pyrimidine] | 83 | > 1000 | 100 to 1000
4 | CC(CN1CCCCC1)Nc1ncc2ncnc(Nc3ccc(F)c(Cl)c3)c2n1 (stereo not drawn) [1(20), 4-[(3-Chloro-4-fluorophenyl)amino]-6-[1-(1-piperidinyl)-2-propylamino]pyrimido[5,4-d]pyrimidine] | 225 | > 1000 | 100 to 1000
5 | CCN(CC)CC(C)Nc1ncc2ncnc(Nc3ccc(F)c(Cl)c3)c2n1 (stereo not drawn) [1(21), 4-[(3-Chloro-4-fluorophenyl)amino]-6-[1-(N,N-diethylamino)-2-propylamino]pyrimido[5,4-d]pyrimidine] | 300 | > 1000 | 100 to 1000
6 | NCC1CCC(CNc2ncc3ncnc(Nc4ccc(F)c(Cl)c4)c3n2)CC1 (stereo not drawn) [1(22), 4-[(3-Chloro-4-fluorophenyl)amino]-6-[4-(aminomethyl)cyclohexylmethylamino]pyrimido[5,4-d]pyrimidine] | 43 | > 1000 | 100 to 1000
